Measurements as given in US20170065663A1, “SUBSTANCE AND METHOD FOR TREATING INFLUENZA” (priority 2014, published 2017).
Where two headings read alike, the source gives them in different places.

Experiments:
[1] = Example I: degradation in IMDM media with 2.5% fetal bovine serum
[2] = target: T1, ECE-1 (Homo sapiens, UniProt P42892); conditions: cited from earlier work; for peptide present that is degraded: within 100 minutes of incubation
T1 sequence (P42892 1-770): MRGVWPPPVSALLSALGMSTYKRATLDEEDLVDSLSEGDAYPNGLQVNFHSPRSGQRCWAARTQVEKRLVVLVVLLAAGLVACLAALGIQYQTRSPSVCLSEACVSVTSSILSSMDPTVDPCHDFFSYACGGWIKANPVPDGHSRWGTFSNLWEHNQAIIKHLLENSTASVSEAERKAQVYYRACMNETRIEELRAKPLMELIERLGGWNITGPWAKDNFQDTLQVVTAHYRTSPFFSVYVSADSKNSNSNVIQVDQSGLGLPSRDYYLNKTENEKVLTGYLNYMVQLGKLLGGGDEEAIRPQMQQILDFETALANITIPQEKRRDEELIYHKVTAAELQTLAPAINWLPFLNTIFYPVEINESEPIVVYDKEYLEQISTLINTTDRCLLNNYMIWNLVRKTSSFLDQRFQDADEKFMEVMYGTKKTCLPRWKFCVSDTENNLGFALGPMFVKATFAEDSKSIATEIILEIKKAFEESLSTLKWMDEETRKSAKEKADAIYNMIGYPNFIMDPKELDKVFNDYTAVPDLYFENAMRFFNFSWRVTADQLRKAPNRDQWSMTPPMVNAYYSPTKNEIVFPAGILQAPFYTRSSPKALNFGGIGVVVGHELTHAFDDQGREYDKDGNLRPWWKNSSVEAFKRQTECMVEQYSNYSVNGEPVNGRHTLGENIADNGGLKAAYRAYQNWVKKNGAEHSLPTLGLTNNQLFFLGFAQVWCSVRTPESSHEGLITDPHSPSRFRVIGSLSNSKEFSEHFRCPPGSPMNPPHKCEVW

[3] = Example II: degradation of further Substance P analogs in IMDM media with 2.5% fetal bovine serum; conditions: 72 hours, present tense
[4] = test system: Influenza/A/Wuhan/359/95; parameters: species or system cotton rats (Sigmodon Hispidus); conditions: rat, in vivo
[5] = test system: influenza virus subtypes H1N1, H3N2, H5N1 and H7N9; parameters: species or system mice, cotton rats and ferrets; conditions: in vivo
[6] = test system: Influenza/A/Wuhan/359/95; parameters: species or system cotton rats (Sigmodon Hispidus); conditions: rat, in vivo; remark: listed apart in the source
[7] = test system: influenza virus subtypes H1N1, H3N2, H5N1 and H7N9; parameters: species or system mice, cotton rats and ferrets; conditions: in vivo; remark: listed apart in the source

CSCC[C@H](NC(=O)[C@H](CC(C)C)NC(=O)CNC(=O)[C@H](Cc1ccccc1)NC(=O)[C@H](Cc1ccccc1)NC(=O)[C@H](CCC(N)=O)NC(=O)[C@H](CCC(N)=O)NC(=O)[C@@H]1CCCN1C(=O)[C@H](CCCCN)NC(=O)[C@@H]1CCCN1C(=O)[C@@H](N)CCCN=C(N)N)C(N)=O [Substance P]
remaining at 72 h [1]: 24% | peptide present that is degraded ([2]; 195 nM ECE-1): ~100% | initial concentration recovered [3]: 24%

CCOC(=O)C1=C[C@@H](OC(CC)CC)[C@H](NC(C)=O)[C@@H](N)C1 [Tamiflu®, oseltamivir]
body weight loss [4]: recover from weight-loss quicker than vehicle-treated controls | pulmonary inflammation (alveolitis and interstitial inflammation) [4]: did not appear to affect pulmonary inflammation | flu-related symptoms compared with placebo [5]: fewer flu-related symptoms | symptom reduction compared with subjects treated with an enumerated Substance P analog [5]: do not exhibit the symptom reduction produced in the subjects treated with one of the enumerated Substance P analogs | body weight change following infection [6]: greater loss in body weight than mock-treated/infected animals | flu-related symptoms compared with placebo [7]: fewer flu-related symptoms

CC(C)C[C@H](NC(=O)CN(C)C(=O)[C@H](Cc1ccccc1)NC(=O)[C@H](Cc1ccccc1)NC(=O)[C@H](CCC(N)=O)NC(=O)[C@H](CCC(N)=O)NC(=O)[C@@H]1CCCN1C(=O)[C@H](CCCCN)NC(=O)[C@@H]1CCCN1C(=O)[C@@H](N)CCCNC(=N)N)C(=O)N[C@@H](CCS(C)(=O)=O)C(N)=O
remaining at 72 h [1]: 59% | additional degradation after long incubation ([2]; 195 nM ECE-1, 1200 minutes post-incubation): no additional degradation occurs | time for 50% of the peptide present to become degraded ([2]; 195 nM ECE-1): ~300 min | peptide present that is degraded ([2]; 195 nM ECE-1): about 20%
